Laboratory results from article PMC10518257 (Nature Cancer, 2023).
Several values for one entry are separate records, joined by “and”; a condition that tells them apart may be missing. Equal values may be shown once. Read-outs that look alike come from different tables or passages of the source.

Assays:
[1] = test system: Ba/F3-CCDC6::RET; assay: Growth inhibition assay in Ba/F3 cells (CellTiter-Glo, 72 h); type: cell-based
[2] = test system: LUAD-0087AS2 cells; assay: Growth inhibition (alamarBlue, 96 h); type: cell-based, human; details: for raw viability signal (Source Data Fig. 3b-c): LUAD-0087AS2, replicate sets
[3] = test system: LUAD-0057BS1 cells; assay: Growth inhibition (alamarBlue, 96 h); type: cell-based, human; details: for raw viability signal (Source Data Fig. 3b-c): LUAD-0057BS1, replicate sets
[4] = test system: ECLC5B cells; assay: Growth inhibition (alamarBlue, 96 h); type: cell-based, human; details: for raw viability signal (Source Data Fig. 3b-c): ECLC5B, replicates
[5] = test system: Ba/F3 cells expressing KIF5B–RET^G810R; assay: Growth inhibition assay in Ba/F3 cells (CellTiter-Glo, 72 h); type: cell-based; details: Ba/3-KIF5B-RET-G810R; replicate Sets 1-3
[6] = test system: Ba/F3 cells; assay: as above; type: cell-based; details: Mus musculus
[7] = test system: TT cells; assay: Growth inhibition (alamarBlue, 96 h); type: cell-based, human; details: for raw viability signal (Source Data Fig. 3b-c): replicate sets
[8] = test system: Ba/F3 cells expressing KIF5B–RET^V804L; assay: Growth inhibition assay in Ba/F3 cells (CellTiter-Glo, 72 h); type: cell-based; details: replicate sets
[9] = test system: Ba/F3-CCDC6::RET^S904F; assay: as above; type: cell-based
[10] = test system: HBECp53-EV cells; assay: Growth inhibition (alamarBlue, 96 h); type: cell-based, human; details: for raw viability signal (Source Data Fig. 3b-c): HBEC-EV, replicate sets
[11] = test system: Ba/F3 cells expressing KIF5B–RET^G810S; assay: Growth inhibition assay in Ba/F3 cells (CellTiter-Glo, 72 h); type: cell-based; details: replicate Sets 1-3
[12] = test system: Ba/F3 cells expressing KIF5B–RET^WT; assay: as above; type: cell-based
[13] = test system: phosphorylation of RET^G810R, RET^G810S and RET^G810C in Ba/F3 cells; assay: Western blotting of RET phosphorylation in Ba/F3 KIF5B–RET cells; type: cell-based; details: 1 h, western blot, 100 nM
[14] = Homo sapiens, 96 h, read-out: IC50 for Inhibition of Growth (95% CI)

Compound: COCc1ccc(NC(=O)c2c(C#CCN3CCOCC3)n(C3(C)CC3)c3ncnc(N)c23)cc1 [Vepafestinib, 4-amino-N-[4-(methoxymethyl)phenyl]-7-(1-methylcyclopropyl)-6-[3-(morpholin-4-yl)prop-1-yn-1-yl]-7H-pyrrolo[2,3-d]pyrimidine-5-carboxamide]
- GI50 ([1]; BaF3/CCDC6-RET, 72 h, read-out: GI50 value (Mean ± SD), Ba/F3-CCDC6::RET, CellTiter-Glo, 72 h): 22 ± 9.3 nM
- GI50 ([1]; read-out: GI50 values, Ba/F3-CCDC6::RET, individual sets (replicate experiments)): 14 nM and 32.2 nM and 19.9 nM
- IC50 [2, 14]: 52 nM
- raw viability signal (Source Data Fig. 3b-c) ([2]; 0.01 nM): 11228 and 14615.9 and 14016.7 and 14250.8
- raw viability signal (Source Data Fig. 3b-c) ([2]; 0.1 nM): 11523.4 and 15236.1 and 13636.1 and 15169.5
- raw viability signal (Source Data Fig. 3b-c) ([2]; 1 nM): 9899.07 and 15123.8 and 13931.5 and 14165.7
- raw viability signal (Source Data Fig. 3b-c) ([2]; 10 nM): 10547.8 and 8202.29 and 13996.8 and 13713.3
- raw viability signal (Source Data Fig. 3b-c) ([2]; 100 nM): 5765.45 and 5334.21 and 3421.1 and 4734.04
- raw viability signal (Source Data Fig. 3b-c) ([2]; 1000 nM): 2843.25 and 5162.03 and 1552.19 and 1343.68
- raw viability signal (Source Data Fig. 3b-c) ([2]; 10000 nM): 1385.86 and 3882.23 and 977.192 and 943.954
- IC50 [3, 14]: 60 nM
- raw viability signal (Source Data Fig. 3b-c) ([3]; 0.01 nM): 17419.2 and 15925.4 and 18689.8 and 23015.1
- raw viability signal (Source Data Fig. 3b-c) ([3]; 0.1 nM): 17721.3 and 15866.4 and 19298.6 and 21993.3
- raw viability signal (Source Data Fig. 3b-c) ([3]; 1 nM): 17137.9 and 16657.5 and 19117.5 and 21130.9
- raw viability signal (Source Data Fig. 3b-c) ([3]; 10 nM): 14331 and 15273.4 and 17077.7 and 19439.8
- raw viability signal (Source Data Fig. 3b-c) ([3]; 100 nM): 7158.2 and 6135.51 and 7993.83 and 7600.63
- raw viability signal (Source Data Fig. 3b-c) ([3]; 1000 nM): 3333.45 and 1678.22 and 2095.91 and 2070.83
- raw viability signal (Source Data Fig. 3b-c) ([3]; 10000 nM): 2605.9 and 881.24 and 1045.29 and 1424.56
- raw viability signal (Source Data Fig. 3b-c) ([4]; 0.01 nM): 9826.46 and 7916.25 and 19010.8
- raw viability signal (Source Data Fig. 3b-c) ([4]; 0.1 nM): 10351 and 8612.52 and 20662.3
- raw viability signal (Source Data Fig. 3b-c) ([4]; 1 nM): 10751.4 and 8385.29 and 18478.3
- raw viability signal (Source Data Fig. 3b-c) ([4]; 10 nM): 4019.62 and 1873.82 and 8615.92
- raw viability signal (Source Data Fig. 3b-c) ([4]; 100 nM): 3307.08 and 1329.05 and 4450.27
- raw viability signal (Source Data Fig. 3b-c) ([4]; 1000 nM): 2927.89 and 1305.13 and 4874.13
- raw viability signal (Source Data Fig. 3b-c) ([4]; 10000 nM): 1756.2 and 2012.52 and 6114.45
- IC50 [4, 14]: 7 nM
- GI50 [5]: 24.2 nM and 46.7 nM
- GI50 ([6]; BaF3, 72 h, read-out: GI50 value (Mean ± SD), Ba/F3, CellTiter-Glo, 72 h): > 10000 nM
- GI50 ([6]; BaF3, Ba/F3 (parental), replicate Sets 1-3): > 10000 nM
- raw viability signal (Source Data Fig. 3b-c) ([7]; 0.01 nM): 22992.9 and 26706 and 26833.9 and 13728.7 and 29403.6
- raw viability signal (Source Data Fig. 3b-c) ([7]; 0.1 nM): 22728 and 26400.4 and 33154.7 and 10987.6 and 26655.8
- raw viability signal (Source Data Fig. 3b-c) ([7]; 1 nM): 22046.8 and 26424.3 and 31146.9 and 10280.3 and 23063
- raw viability signal (Source Data Fig. 3b-c) ([7]; 10 nM): 18366.2 and 23539.3 and 23168.9 and 8667.42 and 19947.5
- raw viability signal (Source Data Fig. 3b-c) ([7]; 100 nM): 10434.7 and 14002.8 and 12336.3 and 4688.9 and 15375.8
- raw viability signal (Source Data Fig. 3b-c) ([7]; 1000 nM): 10759 and 11509.2 and 9437.03 and 4745.5 and 14900.8
- raw viability signal (Source Data Fig. 3b-c) ([7]; 10000 nM): 11538.8 and 12388.7 and 14343.9 and 2691.86 and 17063
- IC50 [7, 14]: 24 nM
- GI50 ([8]; Ba/3-KIF5B-RET-V804L): 21.4 nM
- GI50 ([8]; Mus musculus, BaF3, Ba/3-KIF5B-RET-V804L): 25.9 nM
- GI50 ([9]; BaF3/CCDC6-RET, read-out: GI50 values, Ba/F3-CCDC6::RET S904F, individual sets (replicate experiments)): 28.5 nM
- GI50 ([9]; Mus musculus, BaF3, 72 h, read-out: GI50 value (Mean ± SD), Ba/F3-CCDC6::RET^S904F, CellTiter-Glo, 72 h): 24.7 ± 5 nM
- GI50 ([9]; read-out: GI50 values, Ba/F3-CCDC6::RET S904F, individual sets (replicate experiments)): 26.7 nM and 19.1 nM
- raw viability signal (Source Data Fig. 3b-c) ([10]; 0.01 nM): 27037 and 29740.2
- raw viability signal (Source Data Fig. 3b-c) ([10]; 0.1 nM): 19425.3 (2×) and 27020.1 and 29597.7
- raw viability signal (Source Data Fig. 3b-c) ([10]; 1 nM): 18975.7 (2×) and 23808.3 and 29292.2
- raw viability signal (Source Data Fig. 3b-c) ([10]; 10 nM): 19412.6 (2×) and 25517.4 and 26617.3
- raw viability signal (Source Data Fig. 3b-c) ([10]; 100 nM): 19354.5 (2×) and 27120.8 and 27640.4
- raw viability signal (Source Data Fig. 3b-c) ([10]; 1000 nM): 20047.9 (2×) and 18738.8 and 27632.3
- raw viability signal (Source Data Fig. 3b-c) ([10]; 10000 nM): 7853.82 (2×) and 1053.31 and 23430.8
- IC50 [10, 14]: 7900 nM
- GI50 ([11]; Ba/3-KIF5B-RET-G810S): 14.7 nM and 13.1 nM
- GI50 ([11]; Mus musculus, BaF3, Ba/3-KIF5B-RET-G810S): 7.93 nM
- GI50 ([12]; Ba/3-KIF5B-RET, replicate sets): 8.96 nM and 6.78 nM
- GI50 ([12]; Mus musculus, BaF3, 72 h, read-out: GI50 value (Mean ± SD), Ba/F3-KIF5B::RET, CellTiter-Glo, 72 h): 8.27 ± 1.29 nM
- GI50 ([12]; Mus musculus, BaF3, Ba/3-KIF5B-RET, replicate sets): 9.06 nM
- suppression of phosphorylation of RET^G810R, RET^G810S and RET^G810C [13]: near-complete inhibition
